Measurements published in EP1288203A1, “Cyclic nitrones and pharmaceutical compositions containing them” (Aventis Pharmaceuticals Inc., priority 1995, dated 1997).
Like-named read-outs stand apart in the source and are kept apart here.

Tests used:
[1] = system: cerebellar granule cells; assay: Protection of cerebellar granule cells against Fe2+-induced oxidative damage; assay type: cell-based, rats; conditions: Rattus norvegicus, 100 µM ferrous chloride
Protocol: The cyclic nitrones were tested for their ability to protect primary cultures of cerebellar granule cells against oxidative injury induced by treatment with Fe^2+. Cerebellar granule cell cultures were prepared from 8 day old rats as previously described. Levi, G., Aloisi, F., Ciotti, M.T., Thangnipon, W., Kingsbury, A., and Balazs, R. (1989) In: A Dissection and Tissue Culture Manual of the Nervous System (Shahar, A., de Vellis, J., Vernadakis, A., and Haber, B., eds.) Alan R. Liss, Inc. New York, NY, pp. 211-214. Briefly, 8-10 cerebella were removed and placed in a Crebs-Ringer bicarbonate medium supplemented with BSA and MgSO4. Cerebella were finely chopped and digested with a trypsin/Krebs-Ringer solution. Cells were then dispersed by trituration in Krebs-Ringer containing DNase, MgSO4 and trypsin inhibitor followed by plating at a density of 1x10^6 cells/well in poly-1-lysine coated plate in MEM/10% fetal bovine serum/KCl/glutamine/gentamicin. Media was replaced at 24 hours and cytosine arabinoside added. Experiments were conducted with cells 8-10 days in vitro.
For oxidation studies the media was removed and replaced with Na^+ free Locke's solution (154.6 mM N-methyl-D-glucamine, 5.6 mM KCl, 2.3 mM CaCl2, 1 mM MgCl2, 3.6 mM NaHCO3, and 5 mM HEPES, pH 7.3) with the omission of glucose. The nitrones were added in either Locke's solution or in 20% β-cyclodextrins and allowed to incorporate into the cells for 30 min. At this time 20 µl of a 5 mM stock solution of ferrous chloride was added for a final concentration of 100 µM. After 45 min the media was removed and added to 1.5 ml of TBA/TCA (2:1) with 25 µl of 2% BHT and TBARS determined as described above. The absorbance of the control cells (no iron) was subtracted from the iron treated cells and this value taken as the denominator to determine the concentration of nitrone required to inhibit oxidation by 50%.
Fresh MEM media was added to the cells along with 100 µl of MTT. After 4 hrs, 1 ml of cold isopropanol/0.04 N HCl was added, the cells scraped, mixed well and transferred to 13 x 100 mm glass test tubes. The absorbance resulting from mitochondrial reduction of the MTT (570 nm minus 630 nm) was measured as an assessment of viability. The % cell death was determined by comparison to the absorbance of cells to which no iron was added. The difference between the iron-treated and control cells was taken as 100% and the concentration of nitrone to prevent the loss of MTT reduction capability (expressed in Table II as viability) by 50% was used as the IC50.

[2] = Hydroxyl radical trapping (inhibition of the •OH-dependent bleaching of p-NDA); assay type: biochemical; conditions: IC50 for hydroxyl radical trapping in vitro
Protocol: Cyclic nitrones were evaluated for •OH trapping activity by a variety of tests. The primary assay was dependent upon the ability of the compounds to inhibit the •OH-dependent bleaching of p-NDA. Bors, W., Michel, C., and Saran, M. (1979) J. Biochem. 95, 621-627. The p-NDA was prepared at 1 mM in 50 mM NaCl, pH 7.0. The hydroxyl radical was generated using Fenton chemistry (Fe^2+/H2O2). FeCl2 is dissolved in N2 purged, double distilled H2O to a final concentration of 2.5 mM. H2O2 was prepared from a 30% stock solution (8.8 M) at 1.25 mM in the buffer. Test compounds were solubilized in buffer or ethanol at a concentration of 1 M or 5 M, depending upon solubility.
Assay mixtures in glass cuvettes contained solutions of 0.02 ml of H2O2, 0.02 ml of test compound, 0.10 ml of p-NDA and 50 mM NaCl, pH 7.0 to a final volume of 0.98 ml. The oxidation was initiated by the addition of 0.02 ml of Fe^2+ and the bleaching of p-NDA was monitored as the loss in absorbance at 440 nm for 100 sec. To generate concentration curves, serial dilutions of the test compounds were made such that a constant volume of 0.02 ml was added to the reaction mixture. Ethanol itself is an •OH trap, thus controls contained an equal volume of ethanol for any test compound requiring this vehicle. […]

[3] = Sedation after administration in rats; conditions: high doses in rats
[4] = 0.75 h, 45 min, TBARS in media, read-out: TBARS IC50
[5] = IC50 for preventing loss of MTT reduction capability, read-out: Viability

Compound | IC50 [1, 4] | IC50 [1, 5] | OH RADICAL TRAPPING [2] | sedation [3]
CC1(C)Cc2ccc3ccccc3c2C=[N+]1[O-] [Compound 10, 3,3-Dimethyl-3,4-dihydrobenzo[h]isoquinoline N-oxide] | 104 µM | 103 µM |  | 
CC1(C)Cc2sccc2C=[N+]1[O-] [Compound 18, 6,6-Dimethyl-6,7-dihydrothieno[3,2-c]pyridine N-oxide] | 2600 µM | 880 µM |  | 
CC1(C)Cc2ccoc2C=[N+]1[O-] [Compound 23, 5,5-Dimethyl-4,5-dihydrofuro[2,3-c]pyridine N-oxide] |  |  | no effect at 20 mM | 
CC1(C)Cc2ccccc2C=[N+]1[O-] [Compound A, 3,4-dihydro-3,3-dimethylisoquinoline N-oxide, reference compound] | 307 µM | 292 µM |  | causes sedation
